# Where a name gives a salt, the structure may show the parent alone.
# Columns and labels:
# [1] = target: T1, lispro insulin (R6 hexameric form) (Homo sapiens, UniProt P01308, K53P/P52K); test: Association state of lispro insulin evaluated by circular dichroism (CD signal at 251 nm); format: physicochemical; settings: D1, FIG. 11; Humalog + 9.3 mM citrate, 6 mM EDTA, 7.3 mg/ml Compound 1, 20 mg/ml Polyanionic compound 1
# T1 construct: purchased Eli Lilly Humalog®
# Excerpt: (§1) Circular dichroism makes it possible to study the secondary and quaternary structure of insulin. The insulin monomers are organized as dimers and as hexamers. […] Two hexameric forms exist, the R6 form and the T6 form. […] Loss of the CD signal at 251 nm is linked to destabilization of the hexamer (and thus the first sign of transformation of the hexamer into dimer).
# as §1, with “dimer). […]” for “dimer).”
# [2] = target: human insulin (hexameric form) (Homo sapiens, UniProt P01308); test: Association state of human insulin evaluated by circular dichroism (CD signal at 275 nm); format: physicochemical; settings: D2, FIG. 12; rhINS + 9.3 mM citrate, 6 mM EDTA, 7.3 mg/ml Compound 1, 20 mg/ml Polyanionic compound 1
# Description: (§2) Circular dichroism makes it possible to study the secondary and quaternary structure of insulin. The insulin monomers are organized as dimers and as hexamers. […] The CD signal at 275 nm is characteristic of the hexameric form of insulin (hexamer signal at about −300°, signal for the dimer between −200° and −250°, and signal for the monomer below −200°. Loss of the CD signal at 275 nm is therefore characteristic of destabilization of the hexamer into dimers or monomers.
# as §2, with “−200°).” for “−200°.”
# [3] = pH at which the insulin precipitates; cited from earlier work
# human insulin = human insulin (Homo sapiens, UniProt P01308); test: Dissolution of human insulin at its isoelectric point (pH 5.3); format: binding; settings: translucent = Yes, turbid = No
# Description: If an interaction exists, it is possible to dissolve the insulin at its isoelectric point. […] Solutions of compounds at different concentrations (8, 30 or 100 mg/mL) in water are prepared. […] The pH of the various solutions is adjusted to pH 5.3 by adding 200 mM acetic acid. The appearance of the solution is documented.
# [4] = target: BSA (bovine serum albumin) (Bos taurus, UniProt P02769); test: Interaction with albumin, Centricon test (50 kDa membrane), UV assay of the filtrate; format: binding; settings: 2.43 mg/mL of polysaccharide or compound, 13.3 mg/mL of albumin in PBS, about 100 mM of salts
# Description: F1: In order to determine the interactions between the various polysaccharides or compounds and a model protein such as albumin, a Centricon test (membrane with a cut-off threshold of 50 kDa) was performed. A solution of polysaccharide or of compound at 7.3 mg/mL was diluted three-fold in a solution of BSA (bovine serum albumin) at 20 mg/mL in PBS (concentration in the mixture: 2.43 mg/mL of polysaccharide or of compound, 13.3 mg/mL of albumin and about 100 mM of salts).
# This mixture was centrifuged on a Centricon to make about half the volume pass through the membrane. The albumin is quantitatively retained on the Centricon membrane. The polysaccharides and compounds analyzed alone pass in large majority through the membrane (for the polysaccharides having the largest molar masses, about 20% of the polysaccharide is retained).
# After centrifugation, the polysaccharide or compound is assayed by UV in the filtrate. The percentage of polysaccharide or compound bound to the albumin is calculated via the following equation:
# (1-[polysaccharide or compound in the filtrate in the presence of albumin]/[polysaccharide or compound in the filtrate in the absence of albumin])*100
# man = settings: subcutaneously-injected, diabetic patients; cited from earlier work
# Chain of human insulin (P01308 25-54 limits assumed): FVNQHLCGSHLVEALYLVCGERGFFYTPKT
# Chain of human insulin (P01308 90-110 limits assumed): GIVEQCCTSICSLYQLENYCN
# Chain of human insulin (hexameric form) (P01308 25-54 limits assumed): as the sequence (P01308 25-54 limits assumed) above
# Chain of BSA (bovine serum albumin) (P02769 25-607): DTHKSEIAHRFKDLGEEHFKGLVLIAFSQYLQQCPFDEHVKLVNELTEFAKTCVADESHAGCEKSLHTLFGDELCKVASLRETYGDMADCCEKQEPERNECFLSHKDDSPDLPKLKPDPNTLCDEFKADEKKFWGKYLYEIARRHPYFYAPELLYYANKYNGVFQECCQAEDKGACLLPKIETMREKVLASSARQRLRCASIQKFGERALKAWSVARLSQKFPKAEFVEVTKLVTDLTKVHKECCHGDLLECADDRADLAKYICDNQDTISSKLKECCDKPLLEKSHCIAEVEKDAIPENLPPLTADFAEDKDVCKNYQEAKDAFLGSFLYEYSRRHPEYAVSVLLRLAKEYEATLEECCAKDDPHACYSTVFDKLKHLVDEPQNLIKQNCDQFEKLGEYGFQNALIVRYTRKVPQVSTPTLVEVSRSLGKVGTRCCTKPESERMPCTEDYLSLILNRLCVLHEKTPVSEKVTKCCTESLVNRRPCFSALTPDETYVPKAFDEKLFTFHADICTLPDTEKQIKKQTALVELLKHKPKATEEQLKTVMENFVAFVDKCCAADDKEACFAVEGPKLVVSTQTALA
# T1 sequence (P01308 25-54 P52K/K53P limits assumed): as the sequence (P01308 25-54 limits assumed) above, with P28K, K29P counted along it
Molecule,impact on the CD signal at 275 nm / hexameric structure of human insulin [2],Dissolution of human insulin at 100 IU/mL with the compound at 4 mg/mL (human insulin),Dissolution of human insulin at 100 IU/mL with the compound at 15 mg/mL (human insulin),Dissolution of human insulin at 100 IU/mL with the compound at 50 mg/mL (human insulin),% Polysaccharide or % Compound bound to BSA [4] [%],other results
"O=C(O)CN(CCN(CC(=O)O)CC(=O)O)CC(=O)O [EDTA, reference compound]",total dissociation of the hexamer into dimers,–,–,–,–,impact on the CD signal at 251 nm / R6 hexameric form of lispro insulin [1]: completely destructure the R6 form of lispro insulin
"O=C(O)CC(O)(CC(=O)O)C(=O)O [citrate, sodium citrate]",no impact on the hexameric structure of human insulin,–,–,–,–,impact on the CD signal at 251 nm / R6 hexameric form of lispro insulin [1]: virtually no impact on the CD signal at 251 nm
"Lispro insulin: rapid insulin analog, active principle of Humalog",–,–,–,–,–,isoelectric point [3]: 5.3
Sodium Maltooctaosemethylcarboxylate Functionalized with Sodium L-Phenylalaninate [Compound 9],–,No,No,Yes,43,–
Sodium Maltopentaosemethylcarboxylate Functionalized with Sodium L-Phenylalaninate [Compound 8],–,No,No,Yes,27,–
Sodium Maltotriosemethylcarboxylate Functionalized with Sodium Alpha-Phenylglycinate [Compound 11],–,–,–,–,35,–
Sodium Maltotriosemethylcarboxylate Functionalized with Sodium L-Tyrosinate [Compound 10],–,No,No,Yes,–,–
Sodium Maltotriosemethylcarboxylate [Polyanionic compound 1],no impact on the hexameric structure of human insulin,–,–,–,–,–
"human insulin: insulin obtained by synthesis or recombination, whose peptide sequence is the sequence of human insulin",–,–,–,–,–,hypoglycemiant effect only after (man): 60 min

# Source: patent publication US10881716B2, “Rapid-acting insulin formulation comprising a substituted anionic compound” (ADOCIA, priority 2012, dated 2021)
